# Source: patent publication US7053043B1, “Pharmaceutical compositions comprising synthetic peptide copolymers and methods for preventing and treating GVHD and HVGD” (Yeda Research and Development Co.Ltd., priority 1999, dated 2006)
# Where “and” joins values, the source holds several entries; their conditions need not be identical. Identical values can stand only once.
# What was measured:
# [1] = tested on: B10.D2 responder spleen cells with irradiated C57BL/6 spleen stimulator cells; assay: MLR primary assay, Table 1; format: cell-based, mice; conditions: [3H]-thymidine after 96 hours
# Protocol: The effect of Copolymer 1 (Batch I) on mixed lymphocyte cultures across major histocompatibility barriers was tested. T cell proliferation was assessed in six different MHC-disparate strain combinations. […] To exclude the possibility that higher concentrations of Copolymer 1 (50–100 μg/well) might be toxic to the responder cells, responder cells from background well and from wells incubated with 25–100 μg/well of Copolymer 1 in the presence of stimulator cells for 72 hours in a primary assay, were rechallenged in a subsequent secondary assay with IL-2 (5,000 U/well).
# [2] = tested on: function of transplanted thyroids; assay: Thyroid graft assay for HVGD (125I absorption of thyroid transplanted in kidney capsule); format: in vivo, mice
# Protocol: In this transplantation model for HVGD, thyroid glands from donor mice were transplanted in the kidney's capsules of recipient mice. One week later the transplanted mice were injected with ^125I, and the radioactivity of each kidney (the recipient or the untransplanted kidney) was measured after 20 hours. Δcpm was calculated by subtracting the ^125I absorbance of the untransplanted kidneys from the ^125I absorbance of the recipient kidneys in the same treatment. The mean function index (MFI) for treatment was calculated by dividing the mean Δcpm for the tested (Copolymer 1) treatment by the mean Δcpm for the PBS treatment. P values were obtained by the t test. This assay indicates objectively and quantitatively not only the graft survival, but also the function (iodine absorbance) of the transplanted thyroid tissue (Isakov et al., 1979).
# The transplanted mice were treated daily with Copolymer 1 600 μg/day (300 μg ip+300 μg sc) in PBS solution, starting 7 days before transplantation. The first Cop 1 treatment on day −7 was injected sc in ICFA as a depot dose. Control mice were treated daily with PBS alone and PBS with ICFA on day −7 before transplantation.
# To test the effect of Copolymer 1 treatment on the function of transplanted thyroids in the B10.D2→BALB/c model, thyroid glands from donors B10.D2 were transplanted in the kidney's capsules of BALB/c mice. After one week the transplanted mice were injected with ^125I, and the radioactivity of each kidney was measured 20 hours later. cpm was calculated by subtracting the ^125I absorbance of the untransplanted kidneys from the ^125I absorbance of the recipient kidneys in the same treatment. The mean function index (MFI) for each treatment was calculated by dividing the mean ^125I absorbance of (transplanted kidney-untransplanted kidney) in the tested treatment by the mean ^125I absorbance of (transplanted kidney-untransplanted kidney) in the PBS treatment, as follows: […]
# skin graft rejection = assay: Skin graft transplantation model for HVGD; format: in vivo, mice
# Protocol: Recipient mice were dorsally transplanted with circular pieces of donor skin. Mice were inspected daily. Grafts were considered rejected when no viable donor epidermis remained. The results are expressed in mean survival time (MST). P values were obtained by analysis of variance (ANOVA).
# […] The first Cop 1 treatment on day −7 was injected sc in ICFA as a depot dose. Control mice were treated daily with PBS alone and PBS with ICFA on day −7 before transplantation.
# Grafts were inspected daily. Rejection was considered positive when no viable donor epidermis remained. […]
# [3] = tested on: presentation of BALB/c minor H antigens by B10.D2 APC to B10.D2 responder T cells; assay: Proliferative responses to minor H antigens, APC pre-pulsed with Cop 1 and washed; format: cell-based, mice; conditions: washed
# Protocol: B10.D2 mice were injected ip. with irradiated (20 Gy) BALB/c spleen cells 72 hours prior to the assay. B10.D2 spleen cells were harvested, depleted of red blood cells (RBC) and used as irradiated (10 Gy) antigen-presenting cells (APC) presenting BALB/c mH antigens. For the primary assay, APC were plated at 2.5×10^5 cells per well in 96-well round-bottom plates and incubated with 2.5×10^5 nylon-wool-enriched responder T cells (>88% CD3^+ by FACS analysis) from naive B10.D2 mice in the presence or absence of increasing concentrations of Copolymer 1 (2.5–80 μg/well). After 96 hours of incubation, cells were pulsed with 1 μCi [^3H]-thymidine for an additional 16 hours before harvesting. In the secondary assay, irradiated APC were plated at 2.5×10^5 cells/well in 96-well round-bottom plates, preincubated for 24 hours at 37° C. with increasing concentrations of GLAT (2.5–80 μg/well) or with medium alone, and thereafter washed three times before the addition of 2.5×10^5 nylon-wool-enriched responder T cells from naive B10.D2 mice. Culture medium was RPMI 1640, supplemented with 10% pre-screened fetal calf serum, 2 mM glutamine, 50 μM 2-mercaptoethanol, 100 U/ml penicillin, and 100 μg/ml streptomycin.
# […] Results are expressed as cpm from triplicate cultures. Standard deviations were <20% of the mean. Culture medium was RPMI 1640, supplemented with 10% pre-screened fetal calf serum, 2 mM glutamine, 50 μM 2-mercaptoethanol, 100 U/ml penicillin, and 100 μg/ml streptomycin.
# [4] = B10.D2 → BALB, H-2d, another experiment (N 5), Cop 1 600 μg/day
# [5] = B10.D2 → BALB/c, H-2d, Cop 1 600 μg, N 10
# [6] = B10PL → PL/J, H-2d, Cop 1 600 μg/day
# [7] = C57BL → BALB, H-2b → H-2d, Cop 1 600 μg/day
# [8] = C57BL → C3H, H-2b, Cop 1 600 μg/day
substance,measurement,setting,value
Glatiramer acetate [Cop 1],Primary Assay cpm,[1]; Cop 1 25 μg/well (Batch I),"15,953 cpm"
same,Primary Assay cpm,[1]; Cop 1 50 μg/well (Batch I),"3,663 cpm"
same,Primary Assay cpm,[1]; Cop 1 100 μg/well (Batch I),283 cpm
same,"Mean 125I Absorption, Transplanted Kidney (cpm)",[2]; [4],1035 cpm
same,"Mean 125I Absorption, Untransplanted Kidney (cpm)",[2]; [4],137 cpm
same,cpm (transplanted minus untransplanted kidney),[2]; [4],898 cpm
same,"Mean 125I Absorption, Transplanted Kidney (cpm)",[2]; [5],2901 cpm
same,"Mean 125I Absorption, Untransplanted Kidney (cpm)",[2]; [5],450 cpm
same,cpm (transplanted minus untransplanted kidney),[2]; [5],2451 cpm
same,"Mean 125I Absorption, Transplanted Kidney (cpm)",[2]; [6],2009 cpm
same,"Mean 125I Absorption, Untransplanted Kidney (cpm)",[2]; [6],332 cpm
same,cpm (transplanted minus untransplanted kidney),[2]; [6],1677 cpm
same,"Mean 125I Absorption, Transplanted Kidney (cpm)",[2]; [7],10759 cpm
same,"Mean 125I Absorption, Untransplanted Kidney (cpm)",[2]; [7],924 cpm
same,cpm (transplanted minus untransplanted kidney),[2]; [7],9835 cpm
same,"Mean 125I Absorption, Transplanted Kidney (cpm)",[2]; [8],1643 cpm
same,"Mean 125I Absorption, Untransplanted Kidney (cpm)",[2]; [8],281 cpm
same,cpm (transplanted minus untransplanted kidney),[2]; [8],1362 cpm
same,MFI (mean function index),"[2]; folds over PBS treatment, B10.D2 → BALB, H-2d, another experiment (N 5), Cop 1 600 μg/day",5.2
same,MFI (mean function index),"[2]; folds over PBS treatment, B10.D2 → BALB/c, H-2d, Cop 1 600 μg, N 10",3.2
same,MFI (mean function index),"[2]; relative to PBS treatment, B10PL → PL/J, H-2d, Cop 1 600 μg/day",2.5
same,MFI (mean function index),"[2]; relative to PBS treatment, C57BL → BALB, H-2b → H-2d, Cop 1 600 μg/day",3.0
same,MFI (mean function index),"[2]; relative to PBS treatment, C57BL → C3H, H-2b, Cop 1 600 μg/day",2.3
same,MST ± SD (Mean Survival Time of skin graft),"skin graft rejection; B10.D2 → BALB/c, H-2d, Cop 1 600 μg/day (ip+sc) from day −7",20.6 days and 20.6 ± 3.3 days
same,MST ± SD (Mean Survival Time of skin graft),"skin graft rejection; B10.D2 → BALB/c, H-2d, Cop 1 600 μg/day (ip+sc) from day −7, listed as Copolymer 1",20.6 days
same,mean graft survival time (MST),"skin graft rejection; B10.D2 → BALB/c, 600 μg/day, text refers to Table 6, PBS 26 days",34 days
same,MST ± SD (Mean Survival Time of skin graft),"skin graft rejection; B10.D2 → BALB/c, Cop 1 300 μg/day",20.4 ± 4.5 days
same,MST ± SD (Mean Survival Time of skin graft),"skin graft rejection; B10.D2 → BALB/c, Cop 1 300 μg/day, listed as Copolymer 1",20.4 days
same,MST ± SD (Mean Survival Time of skin graft),"skin graft rejection; B10PL → PL/J, H-2u, Cop 1 600 μg/day",17.6 ± 5.1
same,MST ± SD (Mean Survival Time of skin graft),"skin graft rejection; C57BL → C3HSW, H-2b → H-2d, Cop 1 600 μg/day",18.5 ± 3.3
same,MST ± SD (Mean Survival Time of skin graft),"skin graft rejection; Haplotype H-2b, Cop 1 600 μg/day",17.7 ± 2.1
same,cpm (Cop 1 Pulsing Concentration),[3]; APC pre-pulsed 24 hours with Cop 1 1.5 μg (Batch II),"15,533 cpm"
same,cpm (Cop 1 Pulsing Concentration),[3]; APC pre-pulsed 24 hours with Cop 1 5 μg (Batch II),"12,377 cpm"
same,cpm (Cop 1 Pulsing Concentration),[3]; APC pre-pulsed 24 hours with Cop 1 10 μg (Batch II),"11,425 cpm"
same,cpm (Cop 1 Pulsing Concentration),[3]; APC pre-pulsed 24 hours with Cop 1 20 μg (Batch II),"10,465 cpm"
same,cpm (Cop 1 Pulsing Concentration),[3]; APC pre-pulsed 24 hours with Cop 1 40 μg (Batch II),"7,653 cpm"
same,cpm (Cop 1 Pulsing Concentration),[3]; APC pre-pulsed 24 hours with Cop 1 80 μg (Batch II),"4,628 cpm"
